Positions count from the first letter of the chain named. Read-outs that look alike come from different tables or passages of the source.
Assays:
Assay type in all cases: cell-based
AQP9 [1] = target: T1, AQP9 (Homo sapiens, UniProt O43315, C213A); test: stopped-flow light scattering water and glycerol permeability of AQP9 Cys213Ala-expressing yeast at […]
T1 sequence (O43315 1-295 C213A): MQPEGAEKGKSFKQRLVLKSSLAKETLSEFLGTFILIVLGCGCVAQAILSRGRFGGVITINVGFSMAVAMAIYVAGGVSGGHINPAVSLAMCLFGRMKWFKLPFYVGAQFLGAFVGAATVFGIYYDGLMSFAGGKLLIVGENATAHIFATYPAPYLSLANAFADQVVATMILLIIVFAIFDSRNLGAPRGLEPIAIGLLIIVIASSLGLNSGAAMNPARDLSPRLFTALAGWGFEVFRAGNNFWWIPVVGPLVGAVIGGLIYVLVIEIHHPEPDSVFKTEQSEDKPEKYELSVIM

AQP1 [2] = target: T2, AQP1 (Rattus norvegicus, UniProt P29975); test: stopped-flow light scattering water permeability of AQP1-expressing yeast; Cys189Ala variant resistant; reversed by ACC/DTT
T2 sequence (P29975 1-269): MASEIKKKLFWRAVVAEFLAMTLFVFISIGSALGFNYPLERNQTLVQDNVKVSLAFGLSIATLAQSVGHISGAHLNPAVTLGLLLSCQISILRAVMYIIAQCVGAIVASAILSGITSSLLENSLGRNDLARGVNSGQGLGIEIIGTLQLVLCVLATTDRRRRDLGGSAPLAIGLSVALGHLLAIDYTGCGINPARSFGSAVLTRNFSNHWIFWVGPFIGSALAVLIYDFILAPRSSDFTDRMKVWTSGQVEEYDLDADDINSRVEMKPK

AQP9 [3] = target: T3, AQP9 (Homo sapiens, UniProt O43315); test: stopped-flow light scattering water and glycerol permeability of AQP9-expressing yeast at […]
T3 sequence (O43315 1-295): T1 sequence (O43315 1-295 C213A) with A213C

AQP1 [4] = target: T2, AQP1; test: stopped-flow light scattering water permeability of AQP1-expressing yeast at […]; Cys189Ala variant resistant
AQP9 [5] = target: T3, AQP9; test: stopped-flow light scattering water and glycerol permeability of AQP9-expressing yeast at […]; remark: listed apart in the source
AQP9 [6] = target: T1, AQP9; test: stopped-flow light scattering water and glycerol permeability of AQP9 Cys213Ala-expressing yeast at […]; remark: listed apart in the source
AQP1 [7] = target: T2, AQP1; test: stopped-flow light scattering water permeability of AQP1-expressing yeast at […] (marginal effect); Cys189Ala variant resistant

CS(=O)(=O)SCc1ccccc1 [BMTS]
stopped-flow light scattering water and glycerol permeability of AQP9 Cys213Ala- (AQP9 [1]): The water permeability of AQP9 Cys213Ala was still inhibited to the same degree as that of the wildtype protein | IC50 (AQP1 [2]): 111 ± 3 µM | stopped-flow light scattering water and glycerol permeability of AQP9-expressing (AQP9 [3]): AQP9 water and glycerol permeability were strongly inhibited by BMTS and pCMBS

CCCSS(C)(=O)=O [PMTS]
stopped-flow light scattering water permeability of AQP1-expressing yeast at 1 m (AQP1 [4]): modification with S-n-propyl from PMTS conferred intermediate inhibition

O=S(=O)([O-])c1cc[c]([Hg][Cl])cc1 [pCMBS]
stopped-flow light scattering water and glycerol permeability of AQP9-expressing (AQP9 [5]): AQP9 water and glycerol permeability were strongly inhibited by BMTS and pCMBS | stopped-flow light scattering water and glycerol permeability of AQP9 Cys213Ala- (AQP9 [6]): treatment of AQP9 Cys213Ala with BMTS or pCMBS failed to generate full resistance to the Cys-modifying agents

CSS(C)(=O)=O [MMTS]
stopped-flow light scattering water permeability of AQP1-expressing yeast at 1 m (AQP1 [7]): the transfer of a small S-methyl from MMTS had a marginal effect on the water permeability

From article PMC10340331, “Methylthiosulfonate-Based Cysteine Modifiers as Alternative Inhibitors of Mercurial-Sensitive Aquaporins” (Cells, 2023)
